Earlier results as cited in patent US20140080923A1, “STEVIA BASED SWEETENING COMPOSITION” (STEVINOL LTD., priority 2011, published 2014).

Settings: background statement

Row | Structure (SMILES) | sweetness compared with sucrose
1 | C=C1C[C@@]23CC[C@H]4[C@@](C)(CCC[C@@]4(C)C(=O)O[C@@H]4O[C@H](CO)[C@@H](O)[C@H](O)[C@H]4O)[C@@H]2CC[C@]1(O[C@@H]1O[C@H](CO)[C@@H](O)[C@H](O)[C@H]1O[C@@H]1O[C@H](CO)[C@@H](O)[C@H](O)[C@H]1O)C3 [stevioside] | ~300 times sweeter than sucrose
2 | C=C1C[C@@]23CC[C@H]4[C@@](C)(CCC[C@@]4(C)C(=O)O[C@@H]4O[C@H](CO)[C@@H](O)[C@H](O)[C@H]4O)[C@@H]2CC[C@]1(O[C@@H]1O[C@H](CO)[C@@H](O)[C@H](O[C@@H]2O[C@H](CO)[C@@H](O)[C@H](O)[C@H]2O)[C@H]1O[C@@H]1O[C@H](CO)[C@@H](O)[C@H](O)[C@H]1O)C3 [rebaudioside A] | ~300 times sweeter than sucrose
